# Source: patent US20250270200A1, “CTPS1 INHIBITORS AND USES THEREOF” (Nimbus Clotho, Inc., priority 2022, published 2025)
# Target: T1, human CTPS1 (Homo sapiens, UniProt P17812)
# T1 sequence (P17812 1-591): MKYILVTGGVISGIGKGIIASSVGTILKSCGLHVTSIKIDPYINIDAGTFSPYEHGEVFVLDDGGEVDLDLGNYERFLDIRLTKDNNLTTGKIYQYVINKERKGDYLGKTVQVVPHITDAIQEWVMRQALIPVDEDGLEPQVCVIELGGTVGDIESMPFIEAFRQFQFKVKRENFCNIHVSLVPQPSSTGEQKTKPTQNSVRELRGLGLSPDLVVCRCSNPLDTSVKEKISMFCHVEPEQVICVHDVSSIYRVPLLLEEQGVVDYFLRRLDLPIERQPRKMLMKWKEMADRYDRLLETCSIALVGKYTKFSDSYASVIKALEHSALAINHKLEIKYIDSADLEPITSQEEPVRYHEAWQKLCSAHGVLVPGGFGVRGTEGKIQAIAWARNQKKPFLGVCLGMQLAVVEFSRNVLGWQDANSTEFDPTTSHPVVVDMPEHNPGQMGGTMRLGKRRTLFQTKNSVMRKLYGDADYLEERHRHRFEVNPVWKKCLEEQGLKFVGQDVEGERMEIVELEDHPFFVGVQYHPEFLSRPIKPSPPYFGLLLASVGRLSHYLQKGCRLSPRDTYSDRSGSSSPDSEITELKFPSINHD
# Test: ADP-Glo assay, human CTPS1 enzyme inhibition
# Format: biochemical
# Settings: wild-type human CTPS1 25 nM; ATP 120 μM, UTP 160 μM, GTP 60 μM, L-glutamine 100 μM; 25 degrees C.; read-out: ADP-Glo_WT_hCTPS1—25 nM_IC50 (IC50)
# Summary of the method: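 ADP-Glo luminescence quantified ADP produced by 25 nM purified human CTPS1 (full length, FLAG-His tagged) at 25° C within the linear phase. Final substrates: ATP 120 μM, UTP 160 μM, GTP 60 μM, L-glutamine 100 μM; 1% DMSO; pH 7.4 HEPES buffer with Mg2+, KCl, DTT. Compound pre-incubated with enzyme 10 min, then with ATP/UTP 10 min.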
row,IC50,SMILES
1,0.005 to 0.025 µM,"CCOc1cncc(-c2cnc(C(=O)N[C@@H](c3nccc(NS(=O)(=O)C4CC4)c3F)[C@@H]3CCOC3)s2)n1 (single isomer, unassigned) [II-19]"

# Same assay, conditions: wild-type human CTPS1, 25 nM enzyme; ADP-Glo; read-out: ADP-Glo_WT_hCTPS1—25 nM_IC50 (IC50)
row,IC50,SMILES
1,0.005 to 0.025 µM,"CCOc1cncc(-c2cnc(C(=O)N[C@H](CN3CC[C@](C)(O)C3)c3cc(NS(=O)(=O)C4CC4)ccn3)s2)n1 [I-131, N-((R)-1-(4-(cyclopropanesulfonamido)pyridin-2-yl)-2-((S)-3-hydroxy-3-methylpyrrolidin-1-yl)ethyl)-5-(6-ethoxypyrazin-2-yl)thiazole-2-carboxamide]"
2,0.005 to 0.025 µM,"CCOc1cncc(-c2cnc(C(=O)N[C@H](c3cc(NS(=O)(=O)C4CC4)ccn3)[C@H]3CCN(C4CC4)C3)s2)n1 [I-112, N-((S)-(4-(cyclopropanesulfonamido)pyridin-2-yl)((S)-1-cyclopropylpyrrolidin-3-yl)methyl)-5-(6-ethoxypyrazin-2-yl)thiazole-2-carboxamide]"
3,> 0.1 µM,"CCOc1cncc(-c2cnc(C(=O)NC(C[C@@H]3COCCN3C)c3cc(NS(=O)(=O)C4CC4)ccn3)s2)n1 (single isomer, unassigned) [I-103]"
4,0.005 to 0.025 µM,"CCOc1cncc(-c2cnc(C(=O)N[C@H](c3cc(NS(=O)(=O)C4CC4)ccn3)[C@H]3COCCO3)s2)n1 [I-73, N-((R)-(4-(cyclopropanesulfonamido)pyridin-2-yl)((S)-1,4-dioxan-2-yl)methyl)-5-(6-ethoxypyrazin-2-yl)thiazole-2-carboxamide]"
5,0.025 to 0.05 µM,"CCOc1cncc(-c2cnc(C(=O)N[C@@H](c3cc(NS(=O)(=O)C4CC4)ccn3)C(C)(C)O)s2)n1 [I-275, (S)-N-(1-(4-(cyclopropanesulfonamido)pyridin-2-yl)-2-hydroxy-2-methylpropyl)-5-(6-ethoxypyrazin-2-yl)thiazole-2-carboxamide]"
6,0.025 to 0.05 µM,"CCOc1cncc(-c2cnc(C(=O)N[C@H](Cn3ccccc3=O)c3cc(NS(=O)(=O)C4CC4)ccn3)s2)n1 [I-139, (R)-N-(1-(4-(cyclopropanesulfonamido)pyridin-2-yl)-2-(2-oxopyridin-1(2H)-yl)ethyl)-5-(6-ethoxypyrazin-2-yl)thiazole-2-carboxamide]"
7,0.005 to 0.025 µM,"CCOc1cncc(-c2cnc(C(=O)N[C@H](c3cc(NS(=O)(=O)C4CC4)ccn3)[C@@H]3CCN(C4CC4)C3)s2)n1 [I-113, N-((S)-(4-(cyclopropanesulfonamido)pyridin-2-yl)((R)-1-cyclopropylpyrrolidin-3-yl)methyl)-5-(6-ethoxypyrazin-2-yl)thiazole-2-carboxamide]"
8,0.005 to 0.025 µM,"CCOc1cncc(-c2cnc(C(=O)N[C@H](c3cc(NS(=O)(=O)C4CC4)ccn3)[C@@H](C)O)s2)n1 [I-264, N-((1R,2R)-1-(4-(cyclopropanesulfonamido)pyridin-2-yl)-2-hydroxypropyl)-5-(6-ethoxypyrazin-2-yl)thiazole-2-carboxamide]"
9,0.025 to 0.05 µM,"O=C(N[C@@H](CN1CCCC1)c1cccc(NS(=O)(=O)C(F)F)c1)c1ncc(-c2cnn3ccc(Cl)cc23)s1 [I-221, (R)-5-(5-chloropyrazolo[1,5-a]pyridin-3-yl)-N-(1-(3-((difluoromethyl)sulfonamido)phenyl)-2-(pyrrolidin-1-yl)ethyl)thiazole-2-carboxamide]"
10,> 0.1 µM,"CCOc1cncc(-c2cnc(C(=O)N(C)[C@@H](c3cc(NS(=O)(=O)C4CC4)ccn3)[C@H]3CCOC3)s2)n1 [I-65, N-((R)-(4-(cyclopropanesulfonamido)pyridin-2-yl)((R)-tetrahydrofuran-3-yl)methyl)-5-(6-ethoxypyrazin-2-yl)-N-methylthiazole-2-carboxamide]"
11,≤ 0.005 µM,"CCOc1cncc(-c2cnc(C(=O)N[C@@H](c3cc(NS(=O)(=O)C4CC4)ccn3)[C@H](C)O)s2)n1 [I-270, N-((1S,2S)-1-(4-(cyclopropanesulfonamido)pyridin-2-yl)-2-hydroxypropyl)-5-(6-ethoxypyrazin-2-yl)thiazole-2-carboxamide]"
12,0.025 to 0.05 µM,"CCOc1cncc(-c2cnc(C(=O)N[C@@H](CN3C[C@H]4COC[C@H]4C3)c3cc(NS(=O)(=O)C4CC4)ccn3)s2)n1 (single isomer, unassigned) [I-30]"
13,0.005 to 0.025 µM,"CCOc1cncc(-c2cnc(C(=O)N[C@H](c3cc(NS(=O)(=O)C4CC4)ccn3)[C@@H](C)O)s2)n1 [I-267, N-((1R,2R)-1-(4-(cyclopropanesulfonamido)pyridin-2-yl)-2-hydroxypropyl)-5-(6-ethoxypyrazin-2-yl)thiazole-2-carboxamide]"
14,≤ 0.005 µM,"CCOc1cncc(-c2cnc(C(=O)N[C@@H](c3cccc(NS(=O)(=O)C(F)F)c3)[C@H](C)CO)s2)n1 [I-245, N-((1R,2S)-1-(3-((difluoromethyl)sulfonamido)phenyl)-3-hydroxy-2-methylpropyl)-5-(6-ethoxypyrazin-2-yl)thiazole-2-carboxamide]"
15,0.025 to 0.05 µM,"CCOc1cncc(-c2cnc(C(=O)N[C@H](COC)c3ccnc(NS(=O)(=O)C4CC4)n3)s2)n1 [I-268, (S)-N-(1-(2-(cyclopropanesulfonamido)pyrimidin-4-yl)-2-methoxyethyl)-5-(6-ethoxypyrazin-2-yl)thiazole-2-carboxamide]"
16,0.005 to 0.025 µM,"C[C@H](O)[C@H](NC(=O)c1ncc(-c2cnn3ccc(Cl)cc23)s1)c1cc(NS(=O)(=O)C2CC2)ccn1 [I-272, 5-(5-chloropyrazolo[1,5-a]pyridin-3-yl)-N-((1R,2S)-1-(4-(cyclopropanesulfonamido)pyridin-2-yl)-2-hydroxypropyl)thiazole-2-carboxamide]"
17,0.005 to 0.025 µM,"CCOc1cncc(-c2cnc(C(=O)N[C@@H](c3cc(NS(=O)(=O)C4CC4)ccn3)[C@H](C)CN3CCCCC3)s2)n1 (stereo in doubt) [I-51, N-((1R,2R)-1-(4-(cyclopropanesulfonamido)pyridin-2-yl)-2-methyl-3-(piperidin-1-yl)propyl)-5-(6-ethoxypyrazin-2-yl)thiazole-2-carboxamide]"
18,0.005 to 0.025 µM,"C[C@H](CO)[C@H](NC(=O)c1ncc(-c2cnn3ccc(Cl)cc23)s1)c1cc(NS(=O)(=O)C2CC2)ccn1 [I-233, 5-(5-chloropyrazolo[1,5-a]pyridin-3-yl)-N-((1S,2S)-1-(4-(cyclopropanesulfonamido)pyridin-2-yl)-3-hydroxy-2-methylpropyl)thiazole-2-carboxamide]"
19,0.005 to 0.025 µM,"CCOc1cncc(-c2ccc(C(=O)NCc3cc(NS(=O)(=O)C4CC4)ccn3)c(F)c2F)n1 [I-175, N-((4-(cyclopropanesulfonamido)pyridin-2-yl)methyl)-4-(6-ethoxypyrazin-2-yl)-2,3-difluorobenzamide]"
20,0.005 to 0.025 µM,"CCOc1cncc(-c2cnc(C(=O)N[C@H](c3cc(NS(=O)(=O)C4CC4)ccn3)[C@@H]3CN(C)CCO3)s2)n1 [I-99, N-((R)-(4-(cyclopropanesulfonamido)pyridin-2-yl)((S)-4-methylmorpholin-2-yl)methyl)-5-(6-ethoxypyrazin-2-yl)thiazole-2-carboxamide]"
21,> 0.1 µM,"COC[C@H](NC(=O)c1ccc(-c2cnn3ccc(Cl)cc23)cc1F)c1cc(NS(=O)(=O)C2CC2)ccn1 [I-284, (R)-4-(5-chloropyrazolo[1,5-a]pyridin-3-yl)-N-(1-(4-(cyclopropanesulfonamido)pyridin-2-yl)-2-methoxyethyl)-2-fluorobenzamide]"
22,0.025 to 0.05 µM,"CCOc1cncc(-c2cnc(C(=O)N[C@H](c3cc(NS(=O)(=O)C4CC4)ccn3)[C@H]3CCCO3)s2)n1 [I-59, N-((R)-(4-(cyclopropanesulfonamido)pyridin-2-yl)((R)-tetrahydrofuran-2-yl)methyl)-5-(6-ethoxypyrazin-2-yl)thiazole-2-carboxamide]"
